Columns and labels:
Assay in all cases: relative viability (nuclei count vs DMSO), 5 days (fraction); higher = more cells survive
Dinaciclib + Luminespib = compound: CCc1cnn2c(NCc3ccc[n+]([O-])c3)cc(N3CCCC[C@H]3CCO)nc12 [Dinaciclib] + CCNC(=O)c1noc(-c2cc(C(C)C)c(O)cc2O)c1-c1ccc(CN2CCOCC2)cc1 [Luminespib] (partner 0.01 µM)
How it was run: (§1)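 Lung cancer cell lines were pin-tool dosed in 1536-well plates on the day after seeding, with either a lone drug or a fixed anchor-drug dose plus five library-drug doses (not always all listed) in √10 steps. Nuclei were counted on 4× images after 5 days. Relative viability is the ratio of treated-well to vehicle-well nuclei counts, with each value a median of duplicate plates.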

Dinaciclib + Trametinib = compound: CCc1cnn2c(NCc3ccc[n+]([O-])c3)cc(N3CCCC[C@H]3CCO)nc12 [Dinaciclib] + CC(=O)Nc1cccc(-n2c(=O)n(C3CC3)c(=O)c3c(Nc4ccc(I)cc4F)n(C)c(=O)c(C)c32)c1 [Trametinib] (partner 0.02 µM)
How it was run: as §1

Dinaciclib + Pictilisib = compound: CCc1cnn2c(NCc3ccc[n+]([O-])c3)cc(N3CCCC[C@H]3CCO)nc12 [Dinaciclib] + CS(=O)(=O)N1CCN(Cc2cc3nc(-c4cccc5[nH]ncc45)nc(N4CCOCC4)c3s2)CC1 [Pictilisib] (partner 1 µM)
How it was run: as §1

Dinaciclib + Palbociclib = compound: CCc1cnn2c(NCc3ccc[n+]([O-])c3)cc(N3CCCC[C@H]3CCO)nc12 [Dinaciclib] + CC(=O)c1c(C)c2cnc(Nc3ccc(N4CCNCC4)cn3)nc2n(C2CCCC2)c1=O [Palbociclib] (partner 0.5 µM)
How it was run: as §1

Dinaciclib + Lapatinib = compound: CCc1cnn2c(NCc3ccc[n+]([O-])c3)cc(N3CCCC[C@H]3CCO)nc12 [Dinaciclib] + CS(=O)(=O)CCNCc1ccc(-c2ccc3ncnc(Nc4ccc(OCc5cccc(F)c5)c(Cl)c4)c3c2)o1 [Lapatinib] (partner 2 µM)
How it was run: as §1

| Cell Line | relative viability (Dinaciclib + Luminespib; first compound 0.009487 µM) | relative viability (Dinaciclib + Luminespib; first compound 0.03 µM) | relative viability (Dinaciclib + Luminespib; first compound 0.09487 µM) | relative viability (Dinaciclib + Luminespib; first compound 0.3 µM) | relative viability (Dinaciclib + Trametinib; first compound 0.009487 µM) | relative viability (Dinaciclib + Trametinib; first compound 0.03 µM) | relative viability (Dinaciclib + Trametinib; first compound 0.09487 µM) | relative viability (Dinaciclib + Trametinib; first compound 0.3 µM) | relative viability (Dinaciclib + Pictilisib; first compound 0.009487 µM) | relative viability (Dinaciclib + Pictilisib; first compound 0.03 µM) | relative viability (Dinaciclib + Pictilisib; first compound 0.09487 µM) | relative viability (Dinaciclib + Pictilisib; first compound 0.3 µM) | relative viability (Dinaciclib + Palbociclib; first compound 0.009487 µM) | relative viability (Dinaciclib + Palbociclib; first compound 0.03 µM) | relative viability (Dinaciclib + Palbociclib; first compound 0.09487 µM) | relative viability (Dinaciclib + Palbociclib; first compound 0.3 µM) | relative viability (Dinaciclib + Lapatinib; first compound 0.009487 µM) | relative viability (Dinaciclib + Lapatinib; first compound 0.03 µM) | relative viability (Dinaciclib + Lapatinib; first compound 0.09487 µM) | relative viability (Dinaciclib + Lapatinib; first compound 0.3 µM) |
| --- | --- | --- | --- | --- | --- | --- | --- | --- | --- | --- | --- | --- | --- | --- | --- | --- | --- | --- | --- | --- |
| 201T | 1.2 | 0.342 | 0.24 | 0.256 | 0.821 | 0.675 | 0.249 | 0.228 | 0.714 | 0.372 | 0.308 | 0.265 | 0.354 | 0.285 | 0.231 | 0.228 | 1.14 | 0.743 | 0.361 | 0.245 |
| A549 | – | – | – | – | – | – | – | – | 0.375 | 0.0566 | 0.0629 | 0.0604 | – | – | – | – | 0.85 | 0.0505 | 0.0627 | 0.0615 |
| A-427 | 0.554 | 0.0941 | 0.0692 | 0.0782 | 0.624 | 0.117 | 0.109 | 0.115 | 0.564 | 0.0973 | 0.0666 | 0.065 | 0.437 | 0.142 | 0.126 | 0.127 | 0.949 | 0.291 | 0.0989 | 0.0767 |
| ABC-1 | 0.581 | 0.209 | 0.173 | 0.178 | – | – | – | – | 0.658 | 0.157 | 0.163 | 0.136 | 0.648 | 0.334 | 0.212 | 0.246 | 1.19 | 0.574 | 0.357 | 0.303 |
| BEN | 0.323 | 0.221 | 0.174 | 0.133 | 1.44 | 0.981 | 0.349 | 0.291 | 0.621 | 0.388 | 0.173 | 0.191 | 0.458 | 0.386 | 0.287 | 0.296 | 0.731 | 0.343 | 0.166 | 0.186 |
| CAL-12T | 0.133 | 0.085 | 0.0815 | 0.0961 | 0.187 | 0.0992 | 0.122 | 0.11 | 0.201 | 0.105 | 0.122 | 0.116 | 0.121 | 0.137 | 0.108 | 0.128 | 0.323 | 0.171 | 0.179 | 0.149 |
| COR-L23 | 0.226 | 0.0887 | 0.0655 | 0.0681 | 0.508 | 0.111 | 0.0846 | 0.0705 | 0.414 | 0.0756 | 0.0621 | 0.0547 | 0.222 | 0.0905 | 0.0689 | 0.0651 | 0.688 | 0.0875 | 0.0701 | 0.0804 |
| COR-L 105 | 0.509 | 0.214 | 0.229 | 0.169 | 0.41 | 0.327 | 0.35 | 0.329 | 0.306 | 0.23 | 0.224 | 0.25 | 0.414 | 0.311 | 0.296 | 0.309 | 0.327 | 0.292 | 0.283 | 0.299 |
| ChaGo-K-1 | 0.342 | 0.182 | 0.123 | 0.0984 | 0.856 | 0.25 | 0.14 | 0.102 | 0.321 | 0.213 | 0.175 | 0.161 | 0.971 | 0.239 | 0.118 | 0.114 | – | – | – | – |
| EKVX | 0.858 | 0.705 | 0.137 | 0.101 | 0.333 | 0.219 | 0.11 | 0.108 | 0.407 | 0.227 | 0.12 | 0.113 | 0.323 | 0.234 | 0.114 | 0.113 | 0.229 | 0.118 | 0.118 | 0.116 |
| EMC-BAC-2 | 1.15 | 0.382 | 0.145 | 0.16 | 0.842 | 0.21 | 0.219 | 0.22 | 0.621 | 0.303 | 0.136 | 0.15 | 0.46 | 0.323 | 0.224 | 0.248 | 0.85 | 0.598 | 0.165 | 0.157 |
| EPLC-272H | 0.2 | 0.0547 | 0.042 | 0.0355 | 0.223 | 0.0654 | 0.0408 | 0.056 | 0.218 | 0.0536 | 0.0465 | 0.046 | 0.275 | 0.0744 | 0.0435 | 0.0386 | 1 | 0.104 | 0.0545 | 0.051 |
| H3255 | 0.813 | 0.72 | 0.204 | 0.18 | 0.629 | 0.27 | 0.194 | 0.201 | 0.415 | 0.261 | 0.164 | 0.182 | 0.315 | 0.257 | 0.232 | 0.225 | 0.378 | 0.233 | 0.123 | 0.214 |
| HARA | 0.367 | 0.0789 | 0.0403 | 0.0571 | 0.519 | 0.213 | 0.114 | 0.111 | 0.529 | 0.0709 | 0.0524 | 0.031 | 0.204 | 0.126 | 0.0948 | 0.0798 | 0.604 | 0.0778 | 0.0593 | 0.0436 |
| HCC-15 | 0.122 | 0.1 | 0.102 | 0.141 | 0.329 | 0.248 | 0.116 | 0.112 | 0.637 | 0.117 | 0.0949 | 0.11 | 0.673 | 0.292 | 0.107 | 0.132 | 0.63 | 0.104 | 0.0985 | 0.0923 |
| HCC-44 | 0.61 | 0.2 | 0.179 | 0.17 | 1.13 | 0.846 | 0.343 | 0.339 | 0.711 | 0.248 | 0.122 | 0.129 | 0.9 | 0.798 | 0.367 | 0.342 | 0.921 | 0.144 | 0.134 | 0.135 |
